In US9937235B2, “Lipidated peptides as anti-obesity agents” (USTAV ORGANICKE CHEMIE A BIOCHEMIE AKADEMIE VED CR, V.V.I, priority 2012, dated 2018):
Where a SMILES comes first, the peptide text is derived from it. Where no end group is shown, it is not given here. [ ]: non-standard residue; d: D form. The star is where a group is joined. Stearoyl = CCCCCCCCCCCCCCCCCC(=O)*; Myristoyl = CCCCCCCCCCCCCC(=O)*; Decanoyl = CCCCCCCCCC(=O)*; Nle = CCCC[C@H](N)C(=O)O; Octanoyl = CCCCCCCC(=O)*

Tested on: fasted C57BL/6 mice
Assay: Food intake in fasted mice after SC administration
Assay type: in vivo, mouse
Details: fasted C57BL/6 mice, 5 mg/kg SC, 45 min
Procedure: Male C57BL/6 mice (An Lab, Prague 4) were bred in the accredited animal facility in the Institute of Organic Chemistry and Biochemistry, Czech Academy of Sciences, Prague, at the Institute of Molecular Genetics, Prague 4, at the temperature of 22±2° C. with access to food and water ad libitum. The day/night cycle was 12/12 hours (light turned on at 6:00 am). Animals were treated according to the Animal Protection Act (Act No. 246/1992). The males were fed standard chow diet St-1 (Mlýn Kocanda, Praha, Czech Republic) which contained 66% saccharides, 25% proteins and 9% lipids with a caloric value of 3.4 kcal/g.
The food was withdrawn 17 hours prior to injection of lipidated peptide and free access to water was maintained. The administration of saline, PrRP or lipidated analogs was performed either by SC injection at doses of 1-10 mg/kg (volume 0.2 ml/mouse), or by ICV using infusion pump (cannulae were inserted into the third brain ventricle 4 days before the experiment following the procedure of Maixnerová et al. (Maixnerová et al., 2011)). The single dose of peptide was 4 nmol/mouse (5 μl/mouse).
Fifteen minutes after the lipidated peptide administration, the mice were given pre-weighed food. The food was then weighed every 30 minutes for 5-10 hours. The administration of every dose was performed at least twice and one group of mice consisted of at least 6 mice. The results were presented as % of food intake as compared with the control group injected with saline.
Statistical evaluation was performed using program Graph-Pad Prism Software (San Diego, Calif., USA), and the one-way ANOVA with a subsequent Dunnettovým post-hoc test. The difference in food intake between mice injected with saline and mice injected with the examined peptide were considered statistically significant at P<0.05.

Compound | Food intake in mice (5 mg/kg SC) % saline-treated group (45 min) [%]
CCCCCCCCCCCCCC(=O)N[C@@H](CO)C(=O)N[C@@H](Cc1c[nH]cn1)C(=O)N[C@@H](CCC(N)=O)C(=O)N[C@@H](CCCNC(=N)N)C(=O)N1CCC[C@H]1C(=O)N[C@@H](C)C(=O)N[C@@H](CC(=O)O)C(=O)N[C@H](C(=O)N[C@@H](Cc1c[nH]cn1)C(=O)N[C@@H](Cc1c[nH]c2ccccc12)C(=O)N[C@@H](Cc1ccc(O)cc1)C(=O)N1CCC[C@H]1C(=O)N[C@@H](CCCNC(=N)N)C(=O)NCC(=O)N[C@@H](CCCC)C(=O)N[C@@H](Cc1ccccc1)C(=O)N1CCC[C@H]1C(=O)N[C@H](C(=O)N[C@H](C(=O)NCC(=O)N[C@@H](CCCNC(=N)N)C(=O)N[C@H](C(=O)N[C@H](C(=O)N[C@@H](C)C(=O)N[C@@H](CCCNC(=N)N)C(=O)N[C@@H](CC(N)=O)C(=O)NCC(=O)N[C@@H](CCC(=O)O)C(=O)N[C@H](C(=O)N[C@@H](CO)C(=O)N[C@@H](CCCNC(=N)N)C(=O)O)C(C)C)[C@@H](C)O)[C@@H](C)CC)[C@@H](C)CC)[C@@H](C)O)[C@@H](C)O [Analog 31] (Myristoyl-SHQRPADTHWYPRG[Nle]FPTIGRITARNGEVSR-OH; C-terminus assumed) | 100
CCCCCCCCCCCCCC(=O)N[C@@H](CO)C(=O)N[C@@H](CCCNC(=N)N)C(=O)N[C@@H](C)C(=O)N[C@@H](Cc1c[nH]cn1)C(=O)N[C@@H](CCC(N)=O)C(=O)N[C@@H](Cc1c[nH]cn1)C(=O)N[C@@H](CO)C(=O)N[C@@H](CCSC)C(=O)N[C@@H](CCC(=O)O)C(=O)N[C@H](C(=O)N[C@@H](CCCNC(=N)N)C(=O)N[C@H](C(=O)N1CCC[C@H]1C(=O)N[C@@H](CC(=O)O)C(=O)N[C@H](C(=O)N[C@@H](CC(N)=O)C(=O)N1CCC[C@H]1C(=O)N[C@@H](C)C(=O)N[C@@H](Cc1c[nH]c2ccccc12)C(=O)N[C@@H](Cc1ccc(O)cc1)C(=O)N[C@H](C(=O)NCC(=O)N[C@@H](CCCNC(=N)N)C(=O)NCC(=O)N[C@H](C(=O)N[C@@H](CCCNC(=N)N)C(=O)N1CCC[C@H]1C(=O)N[C@H](C(=O)NCC(=O)N[C@@H](CCCNC(=N)N)C(=O)N[C@@H](Cc1ccccc1)C(N)=O)C(C)C)[C@@H](C)CC)[C@@H](C)O)[C@@H](C)CC)[C@@H](C)O)[C@@H](C)O [Analog 60] (Myristoyl-SRAHQHSMETRTPDINPAWYTGRGIRPVGRF-NH2) | 20
CCCCCCCCCCCCCC(=O)N[C@@H](CO)C(=O)N[C@@H](CCCNC(=N)N)C(=O)N[C@@H](C)C(=O)N[C@@H](Cc1c[nH]cn1)C(=O)N[C@@H](CCC(N)=O)C(=O)N[C@@H](Cc1c[nH]cn1)C(=O)N[C@@H](CO)C(=O)N[C@@H](CCCC)C(=O)N[C@@H](CCC(=O)O)C(=O)N[C@H](C(=O)N[C@@H](CCCNC(=N)N)C(=O)N[C@H](C(=O)N1CCC[C@H]1C(=O)N[C@@H](CC(=O)O)C(=O)N[C@H](C(=O)N[C@@H](CC(N)=O)C(=O)N1CCC[C@H]1C(=O)N[C@@H](C)C(=O)N[C@@H](Cc1c[nH]c2ccccc12)C(=O)N[C@@H](Cc1ccc(O)cc1)C(=O)N[C@H](C(=O)NCC(=O)N[C@@H](CCCNC(=N)N)C(=O)NCC(=O)N[C@H](C(=O)N[C@@H](CCCNC(=N)N)C(=O)N1CCC[C@H]1C(=O)N[C@H](C(=O)NCC(=O)N[C@@H](CCCNC(=N)N)C(=O)N[C@@H](Cc1ccccc1)C(N)=O)C(C)C)[C@@H](C)CC)[C@@H](C)O)[C@@H](C)CC)[C@@H](C)O)[C@@H](C)O [Analog 18] (Myristoyl-SRAHQHS[Nle]ETRTPDINPAWYTGRGIRPVGRF-NH2) | 3
CCCCCCCCCCCCCCCC(=O)N[C@@H](CO)C(=O)N[C@@H](CCCNC(=N)N)C(=O)N[C@H](C(=O)N[C@@H](Cc1c[nH]cn1)C(=O)N[C@@H](CCCNC(=N)N)C(=O)N[C@@H](Cc1c[nH]cn1)C(=O)N[C@@H](CO)C(=O)N[C@@H](CCSC)C(=O)N[C@@H](CCC(=O)O)C(=O)N[C@H](C(=O)N[C@@H](CCCNC(=N)N)C(=O)N[C@H](C(=O)N1CCC[C@H]1C(=O)N[C@@H](CC(=O)O)C(=O)N[C@H](C(=O)N[C@@H](CC(N)=O)C(=O)N1CCC[C@H]1C(=O)N[C@@H](C)C(=O)N[C@@H](Cc1c[nH]c2ccccc12)C(=O)N[C@@H](Cc1ccc(O)cc1)C(=O)N[C@@H](C)C(=O)N[C@@H](CO)C(=O)N[C@@H](CCCNC(=N)N)C(=O)NCC(=O)N[C@H](C(=O)N[C@@H](CCCNC(=N)N)C(=O)N1CCC[C@H]1C(=O)N[C@H](C(=O)NCC(=O)N[C@@H](CCCNC(=N)N)C(=O)N[C@@H](Cc1ccccc1)C(N)=O)C(C)C)[C@@H](C)CC)[C@@H](C)CC)[C@@H](C)O)[C@@H](C)CC)[C@@H](C)O [Analog 57] | 11
TPDINPAWYASRGIRPVGRF-NH2 [Analog 51] | 100
CCCCCCCCCCCCCCCCCC(=O)N[C@@H](CO)C(=O)N[C@@H](CCCNC(=N)N)C(=O)N[C@@H](C)C(=O)N[C@@H](Cc1c[nH]cn1)C(=O)N[C@@H](CCC(N)=O)C(=O)N[C@@H](Cc1c[nH]cn1)C(=O)N[C@@H](CO)C(=O)N[C@@H](CCCC)C(=O)N[C@@H](CCC(=O)O)C(=O)N[C@H](C(=O)N[C@@H](CCCNC(=N)N)C(=O)N[C@H](C(=O)N1CCC[C@H]1C(=O)N[C@@H](CC(=O)O)C(=O)N[C@H](C(=O)N[C@@H](CC(N)=O)C(=O)N1CCC[C@H]1C(=O)N[C@@H](C)C(=O)N[C@@H](Cc1c[nH]c2ccccc12)C(=O)N[C@@H](Cc1ccc(O)cc1)C(=O)N[C@H](C(=O)NCC(=O)N[C@@H](CCCNC(=N)N)C(=O)NCC(=O)N[C@H](C(=O)N[C@@H](CCCNC(=N)N)C(=O)N1CCC[C@H]1C(=O)N[C@H](C(=O)NCC(=O)N[C@@H](CCCNC(=N)N)C(=O)N[C@@H](Cc1ccccc1)C(N)=O)C(C)C)[C@@H](C)CC)[C@@H](C)O)[C@@H](C)CC)[C@@H](C)O)[C@@H](C)O [Analog 20] (Stearoyl-SRAHQHS[Nle]ETRTPDINPAWYTGRGIRPVGRF-NH2) | 3.5
CCCCCCCC(=O)N[C@@H](CO)C(=O)N[C@@H](CCCNC(=N)N)C(=O)N[C@@H](C)C(=O)N[C@@H](Cc1c[nH]cn1)C(=O)N[C@@H](CCC(N)=O)C(=O)N[C@@H](Cc1c[nH]cn1)C(=O)N[C@@H](CO)C(=O)N[C@@H](CCCC)C(=O)N[C@@H](CCC(=O)O)C(=O)N[C@H](C(=O)N[C@@H](CCCNC(=N)N)C(=O)N[C@H](C(=O)N1CCC[C@H]1C(=O)N[C@@H](CC(=O)O)C(=O)N[C@H](C(=O)N[C@@H](CC(N)=O)C(=O)N1CCC[C@H]1C(=O)N[C@@H](C)C(=O)N[C@@H](Cc1c[nH]c2ccccc12)C(=O)N[C@@H](Cc1ccc(O)cc1)C(=O)N[C@H](C(=O)NCC(=O)N[C@@H](CCCNC(=N)N)C(=O)NCC(=O)N[C@H](C(=O)N[C@@H](CCCNC(=N)N)C(=O)N1CCC[C@H]1C(=O)N[C@H](C(=O)NCC(=O)N[C@@H](CCCNC(=N)N)C(=O)N[C@@H](Cc1ccccc1)C(N)=O)C(C)C)[C@@H](C)CC)[C@@H](C)O)[C@@H](C)CC)[C@@H](C)O)[C@@H](C)O [Analog 15] (Octanoyl-SRAHQHS[Nle]ETRTPDINPAWYTGRGIRPVGRF-NH2) | 94
CCCCCCCCCCCCCC(=O)N[C@@H](CO)C(=O)N[C@@H](CCCNC(=N)N)C(=O)N[C@H](C(=O)N[C@@H](Cc1c[nH]cn1)C(=O)N[C@@H](CCCNC(=N)N)C(=O)N[C@@H](Cc1c[nH]cn1)C(=O)N[C@@H](CO)C(=O)N[C@@H](CCSC)C(=O)N[C@@H](CCC(=O)O)C(=O)N[C@H](C(=O)N[C@@H](CCCNC(=N)N)C(=O)N[C@H](C(=O)N1CCC[C@H]1C(=O)N[C@@H](CC(=O)O)C(=O)N[C@H](C(=O)N[C@@H](CC(N)=O)C(=O)N1CCC[C@H]1C(=O)N[C@@H](C)C(=O)N[C@@H](Cc1c[nH]c2ccccc12)C(=O)N[C@@H](Cc1ccc(O)cc1)C(=O)N[C@@H](C)C(=O)N[C@@H](CO)C(=O)N[C@@H](CCCNC(=N)N)C(=O)NCC(=O)N[C@H](C(=O)N[C@@H](CCCNC(=N)N)C(=O)N1CCC[C@H]1C(=O)N[C@H](C(=O)NCC(=O)N[C@@H](CCCNC(=N)N)C(=O)N[C@@H](Cc1ccccc1)C(N)=O)C(C)C)[C@@H](C)CC)[C@@H](C)CC)[C@@H](C)O)[C@@H](C)CC)[C@@H](C)O [Analog 56] | 35
CCCCCCCCCC(=O)N[C@@H](CO)C(=O)N[C@@H](CCCNC(=N)N)C(=O)N[C@@H](C)C(=O)N[C@@H](Cc1c[nH]cn1)C(=O)N[C@@H](CCC(N)=O)C(=O)N[C@@H](Cc1c[nH]cn1)C(=O)N[C@@H](CO)C(=O)N[C@@H](CCCC)C(=O)N[C@@H](CCC(=O)O)C(=O)N[C@H](C(=O)N[C@@H](CCCNC(=N)N)C(=O)N[C@H](C(=O)N1CCC[C@H]1C(=O)N[C@@H](CC(=O)O)C(=O)N[C@H](C(=O)N[C@@H](CC(N)=O)C(=O)N1CCC[C@H]1C(=O)N[C@@H](C)C(=O)N[C@@H](Cc1c[nH]c2ccccc12)C(=O)N[C@@H](Cc1ccc(O)cc1)C(=O)N[C@H](C(=O)NCC(=O)N[C@@H](CCCNC(=N)N)C(=O)NCC(=O)N[C@H](C(=O)N[C@@H](CCCNC(=N)N)C(=O)N1CCC[C@H]1C(=O)N[C@H](C(=O)NCC(=O)N[C@@H](CCCNC(=N)N)C(=O)N[C@@H](Cc1ccccc1)C(N)=O)C(C)C)[C@@H](C)CC)[C@@H](C)O)[C@@H](C)CC)[C@@H](C)O)[C@@H](C)O [Analog 16] (Decanoyl-SRAHQHS[Nle]ETRTPDINPAWYTGRGIRPVGRF-NH2) | 57
